Experiment [1] has as its system A549. Kind of experiment: Cytotoxicity against human A549 cells assessed as reduction in cell viability at 1.25 to 20 uM after 72 hrs by Hoechst 33342 staining based assay. As to conditions: dose 1.25-20 µM. It counts as functional.
Experiment [2] deals with Hep 3B2. Put plainly: Cytotoxicity against human Hep3B cells assessed as reduction in cell viability at 1.25 to 20 uM after 72 hrs by Hoechst 33342 staining based assay. It counts as functional. As to conditions: dose 1.25-20 µM.
The test system of experiment [3] is MCF7. Put plainly: Cytotoxicity against human MCF7 cells assessed as reduction in cell viability at 1.25 to 20 uM after 72 hrs by Hoechst 33342 staining based assay. Particulars: dose 1.25-20 µM. The experiment is classed as functional.
For experiment [4], the system named is PC-3. Put plainly: Cytotoxicity against human PC-3 cells assessed as reduction in cell viability at 1.25 to 20 uM after 72 hrs by Hoechst 33342 staining based assay. Particulars: dose 1.25-20 µM. It counts as functional.
The test system of experiment [5] is HepG2. Put plainly: Cytotoxicity against human HepG2 cells assessed as reduction in cell viability at 1.25 to 20 uM after 72 hrs by Hoechst 33342 staining based assay. The experiment is classed as functional. As to conditions: dose 1.25-20 µM.
For experiment [6], the target named is Cellular tumor antigen p53 (Homo sapiens) (UniProt P04637). Put plainly: Activation of P53 in human MCF7 cells assessed as increase in p21 protein expression at ser15 residues at 6 uM after 72 hrs by Western blot analysis. It counts as cell-based. As to conditions: filed as activator. In general terms: In western blotting, separated proteins are transferred to a membrane and probed.

The nature of experiment [7]: Activation of P53 in human HepG2 cells assessed as increase in P53 phosphorylation at ser15 residues at 6 uM after 72 hrs by Western blot analysis. As to conditions: filed as activator.
Experiment [8] concerns the target Cellular tumor antigen p53 (Homo sapiens) (UniProt P04637). Kind of experiment: Activation of P53 in human HepG2 cells assessed as increase in p21 protein expression at ser15 residues at 6 uM after 72 hrs by Western blot analysis. It counts as cell-based. Particulars: filed as activator.
Experiment [9] concerns Hep 3B2. Kind of experiment: Induction of apoptosis in human Hep3B cells assessed as increase in P53 protein expression at 6 uM after 72 hrs by Western blot analysis. The experiment is classed as functional, cell-based.
Experiment [10] relates to MCF7. Put plainly: Induction of apoptosis in human MCF7 cells assessed as increase in P53 protein expression at 6 uM after 72 hrs by Western blot analysis. The experiment is classed as functional, cell-based.
The subject of experiment [11] is A549. Kind of experiment: Induction of apoptosis in human A549 cells assessed as increase in P53 protein expression at 6 uM after 72 hrs by Western blot analysis. The experiment is classed as functional, cell-based.
Experiment [12] addresses Cellular tumor antigen p53 (Homo sapiens) (UniProt P04637). Kind of experiment: Activation of P53 in human A549 cells assessed as increase in P53 phosphorylation at ser15 residues at 6 uM after 72 hrs by Western blot analysis. Particulars: filed as activator. The experiment is classed as cell-based.
The subject of experiment [13] is A549. Kind of experiment: Induction of apoptosis in human A549 cells assessed as increase in cleaved PARP level at 6 uM after 72 hrs by Western blot analysis. The experiment is classed as functional, cell-based.
Experiment [14] relates to MCF7. Kind of experiment: Induction of apoptosis in human MCF7 cells assessed as increase in cleaved PARP level at 6 uM after 72 hrs by Western blot analysis. It counts as functional, cell-based.
The subject of experiment [15] is Hep 3B2. Kind of experiment: Induction of apoptosis in human Hep3B cells assessed as increase in cleaved PARP level at 6 uM after 72 hrs by Western blot analysis. It counts as functional, cell-based.
Experiment [16] deals with Cellular tumor antigen p53 (Homo sapiens) (UniProt P04637). Put plainly: Activation of P53 in human A549 cells assessed as increase in p21 protein expression at ser15 residues at 6 uM after 72 hrs by Western blot analysis. The experiment is classed as cell-based. Particulars: filed as activator.
The test system of experiment [17] is Cellular tumor antigen p53 (Homo sapiens), P04637 [UNDEFINED MUTATION]. Kind of experiment: Activation of P53 mutant in human Hep3B cells assessed as increase in P53 phosphorylation at ser15 residues at 6 uM after 72 hrs by Western blot analysis. The experiment is classed as cell-based.
For experiment [18] the test system is unchanged. Kind of experiment: Activation of P53 mutant in human PC-3 cells assessed as increase in p21 protein expression at ser15 residues at 6 uM after 72 hrs by Western blot analysis. It counts as cell-based. Particulars: filed as activator.
Experiment [19] relates to PC-3. Put plainly: Induction of apoptosis in human PC-3 cells assessed as increase in cleaved PARP level at 6 uM after 72 hrs by Western blot analysis. The experiment is classed as functional, cell-based.
Experiment [20] deals with Cellular tumor antigen p53 (Homo sapiens), P04637 [UNDEFINED MUTATION]. Put plainly: Activation of P53 mutant in human Hep3B cells assessed as increase in p21 protein expression at ser15 residues at 6 uM after 72 hrs by Western blot analysis. The experiment is classed as cell-based. As to conditions: filed as activator.
Experiment [21] relates to HepG2. Put plainly: Induction of apoptosis in human HepG2 cells assessed as increase in P53 protein expression at 6 uM after 72 hrs by Western blot analysis. It counts as functional, cell-based.
Experiment [22] addresses Cellular tumor antigen p53 (Homo sapiens) (UniProt P04637). Put plainly: Activation of P53 in human MCF7 cells assessed as increase in P53 phosphorylation at ser15 residues at 6 uM after 72 hrs by Western blot analysis. The experiment is classed as cell-based. As to conditions: filed as activator.
Experiment [23] deals with Cellular tumor antigen p53 (Homo sapiens), P04637 [UNDEFINED MUTATION]. Put plainly: Activation of P53 mutant in human PC-3 cells assessed as increase in P53 phosphorylation at ser15 residues at 6 uM after 72 hrs by Western blot analysis. It counts as cell-based.
For experiment [24], the system named is HepG2. Put plainly: Induction of apoptosis in human HepG2 cells assessed as increase in cleaved PARP level at 6 uM after 72 hrs by Western blot analysis. The experiment is classed as functional, cell-based.
The subject of experiment [25] is PC-3. Put plainly: Induction of apoptosis in human PC-3 cells assessed as increase in P53 protein expression at 6 uM after 72 hrs by Western blot analysis. The experiment is classed as functional, cell-based.

Activity calls are given as the source filed them. No cut-off for these calls is given here.

Cellular tumor antigen p53 (Homo sapiens), P04637 [UNDEFINED MUTATION], sequence (P04637 whole entry, looked up, change not shown): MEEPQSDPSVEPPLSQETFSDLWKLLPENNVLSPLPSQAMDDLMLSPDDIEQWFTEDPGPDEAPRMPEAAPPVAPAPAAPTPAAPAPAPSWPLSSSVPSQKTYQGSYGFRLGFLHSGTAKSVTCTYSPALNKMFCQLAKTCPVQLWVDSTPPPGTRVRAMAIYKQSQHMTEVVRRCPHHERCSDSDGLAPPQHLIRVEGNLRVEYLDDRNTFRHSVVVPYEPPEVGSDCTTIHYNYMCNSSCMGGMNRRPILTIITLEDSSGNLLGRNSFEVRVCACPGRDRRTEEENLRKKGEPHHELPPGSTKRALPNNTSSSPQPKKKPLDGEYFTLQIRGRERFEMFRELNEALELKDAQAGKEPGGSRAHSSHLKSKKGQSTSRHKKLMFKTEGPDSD
Cellular tumor antigen p53 (Homo sapiens), sequence (P04637 whole entry, looked up): as the sequence (P04637 whole entry, looked up, change not shown) above

For `COc1ccc(-c2cc3cc(CCO)cc(OC)c3o2)cc1`, the outcome in experiment [1], in experiment [2], in experiment [3], in [4] and in [5] was inactive.
For the compound `COc1cc(CCO)cc2c(C)c(-c3ccc(O)cc3)oc12`, the result in experiment [6], in [7], in experiment [8], in [10], in experiment [1] and in experiment [11] was Active. Also, the result in [2], in experiment [12], in experiment [13], in experiment [14], in experiment [15] and in [3] was Active. Besides, the outcome in experiment [16], in experiment [4], in experiment [18], in experiment [19], in experiment [5] and in experiment [20] was Active. The result in [21], in experiment [22] and in experiment [24] was Active. The result in [9], in [17], in experiment [23] and in experiment [25] was inactive.
On to `COc1cc2oc(-c3ccc(O)cc3)cc2cc1CCO`, for which the outcome in [6], in experiment [7], in experiment [8], in experiment [10], in experiment [1] and in experiment [11] was Active. Also, the outcome in [2], in [12], in experiment [13], in experiment [14], in experiment [15] and in experiment [3] was Active. In addition, the result in experiment [16], in experiment [4], in experiment [18], in experiment [19], in experiment [5] and in [20] was Active. For the same compound, the outcome in experiment [21], in [22] and in experiment [24] was Active. Moreover, the result in experiment [9], in experiment [17], in [23] and in experiment [25] was inactive.
Turning to `COc1ccc(-c2oc3cc(OC)c(CCO)cc3c2C)cc1`, the outcome in [1], in experiment [2], in experiment [3], in experiment [4] and in experiment [5] was inactive.
Take `COc1cc2oc(-c3ccc(O)cc3)c(C)c2cc1CCO`: the result in experiment [1], in [2], in experiment [3], in [4] and in [5] was Active.
For `COc1cc(CCO)cc2cc(-c3ccc(O)cc3)oc12`, the result in experiment [6], in experiment [7], in [8], in experiment [10], in experiment [1] and in experiment [11] was Active. For the same compound, the outcome in [2], in [12], in [13], in experiment [14], in experiment [15] and in experiment [3] was Active. Further, the outcome in [16], in [4], in experiment [18], in experiment [19], in experiment [5] and in [20] was Active. For the same compound, the outcome in experiment [21], in experiment [22] and in experiment [24] was Active. Besides, the result in experiment [9], in experiment [17], in experiment [23] and in experiment [25] was inactive.
As to `COc1ccc(-c2cc3cc(CCO)c(OC)cc3o2)cc1`, the outcome in experiment [1], in experiment [2], in experiment [3], in [4] and in experiment [5] was inactive.
As to `COc1ccc(-c2oc3c(OC)cc(CCO)cc3c2C)cc1`, the result in experiment [1], in experiment [2], in experiment [3], in [4] and in experiment [5] was inactive.
